Test results taken from patent US20100184683A1, “ANTIBACTERIAL AND ANTIFUNGAL PEPTIDES” (C3 JIAN, INC., priority 2009, published 2010).
≈ marks a conversion by molar mass, not a printed value. Read-outs that look alike come from different tables or passages of the source. Peptide text beside a SMILES is read from it.

Key:
S. mutans = assay type: cell-based, Streptococcus mutans; details: S. mutans; TH supplemented with 1% sucrose, 37° C., anaerobic; inoculum 10^5 CFU/ml; 18-24 h or 48 h
Procedure: (§1) In certain embodiments the MIC assays are performed as described herein in the Examples. For each organism, the media and growth conditions utilized is detailed in Table 8.
(§2) In certain embodiments the MIC assays are performed as follows: For each organism, the media and growth conditions utilized is detailed in Table 8.

T. rubrum = assay type: cell-based, Trichophyton rubrum
Procedure: as §1, §2

B. subtilis = assay type: cell-based, Bacillus subtilis
Procedure: as §1, §2

C. albicans = assay type: cell-based, Candida albicans
Procedure: as §1, §2

S. epidermidis = assay type: cell-based
Procedure: as §1, §2

MRSA = assay type: cell-based, Methicillin-resistant Staphylococcus aureus
Procedure: as §1, §2

Candida albicans = experiment: Binding of targeting peptides to Candida albicans; details: tested at 3.13, 6.25, 12.5 and 25.0 μM in 1× PBS or HEPES/NaCl/MgCl2/0.1% CTAB
Procedure: The peptides in Table 6 were tested for binding efficiency at 3.13, 6.25, 12.5 and 25.0 μM concentrations in 1× phosphate-buffered saline or 20 mM HEPES (4-(2-hydroxyethyl)-1-piperazineethanesulfonic acid), 150 mM sodium chloride, 1 mM magnesium chloride and 0.1% CTAB.

A. niger = assay type: cell-based, Aspergillus niger
Procedure: as §1, §2

| Molecule | MIC (C. albicans) | MIC (T. rubrum) | MIC (S. epidermidis) | further results |
| --- | --- | --- | --- | --- |
| WSRVPGHSDTGWKVWHRW [PF-547] | – | – | – | MIC (S. mutans): 12.5 µM; MIC (T. rubrum; T. rubrum, Potato Dextrose Agar, 25° C., aerobic, inoculum 10^5 CFU/ml, 18-24 h or 48 h): 25 µM; MIC (B. subtilis; B. subtilis, BHI, 30° C., aerobic, inoculum 10^5 CFU/ml, 18-24 h or 48 h): 25 µM |
| CC(C)[C@H](NC(=O)[C@@H](N)Cc1ccc(O)cc1)C(=O)N[C@@H](CC(N)=O)C(=O)N[C@@H](Cc1ccc(O)cc1)C(=O)N[C@@H](CC(N)=O)C(=O)N[C@@H](CCC(N)=O)C(=O)N[C@@H](CO)C(=O)N[C@@H](Cc1ccccc1)C(=O)N[C@@H](CC(N)=O)C(=O)N[C@@H](CO)C(=O)NCC(=O)N[C@@H](Cc1c[nH]c2ccccc12)C(=O)O [PF-C220] (H-YVNYNQSFNSGW-OH; N-terminus and C-terminus assumed) | 50 µM (≈ 73.9 µg/mL) | – | – | – |
| CC[C@H](C)[C@H](N)C(=O)N[C@@H](CC(C)C)C(=O)N[C@H](C(=O)N[C@@H](CC(C)C)C(=O)N[C@@H](CC(C)C)C(=O)N[C@@H](C)C(=O)N[C@@H](CC(C)C)C(=O)N[C@@H](CCC(N)=O)C(=O)N[C@H](C(=O)N[C@@H](CCC(=O)O)C(=O)N[C@@H](CC(C)C)C(=O)N[C@@H](CC(=O)O)C(=O)N[C@@H](CO)C(=O)N[C@@H](CCCCN)C(=O)N[C@@H](Cc1ccccc1)C(=O)N[C@@H](CCC(N)=O)C(=O)N[C@@H](Cc1ccc(O)cc1)C(=O)O)C(C)C)C(C)C [PF-C157] (H-ILVLLALQVELDSKFQY-OH; N-terminus and C-terminus assumed) | 50 µM (≈ 99.6 µg/mL) | – | – | – |
| CC[C@H](C)[C@H](NC(=O)[C@H](CCCNC(=N)N)NC(=O)[C@H](C)NC(=O)[C@@H]1CCCN1C(=O)[C@H](Cc1c[nH]c2ccccc12)NC(=O)[C@H](CC(C)C)NC(=O)[C@H](CCCNC(=N)N)NC(=O)[C@H](CCCCN)NC(=O)[C@@H](N)Cc1c[nH]c2ccccc12)C(=O)N[C@@H](CC(C)C)C(=O)N[C@@H](C)C(=O)NCC(=O)N[C@@H](Cc1c[nH]cn1)C(=O)N[C@@H](CO)C(=O)N[C@@H](CCCNC(=N)N)C(=O)N[C@@H](CCCNC(=N)N)C(=O)N[C@@H](CCCNC(=N)N)C(=O)N[C@@H](CCSC)C(=O)N[C@@H](CCCNC(=N)N)C(=O)N[C@@H](Cc1c[nH]c2ccccc12)C(=O)N[C@@H](CCSC)C(=O)N[C@H](C(=O)N[C@H](C(=O)N[C@@H](Cc1c[nH]c2ccccc12)C(=O)N[C@@H](CCCNC(=N)N)C(=O)N[C@@H](Cc1ccc(O)cc1)C(=O)N[C@@H](Cc1ccccc1)C(=O)N[C@@H](C)C(=O)N[C@@H](C)C(=O)N[C@H](C(=O)O)[C@@H](C)O)C(C)C)C(C)C [PF-C021] (H-WKRLWPARILAGHSRRRMRWMVVWRYFAAT-OH; N-terminus and C-terminus assumed) | 50 µM (≈ 193 µg/mL) | 50 µM (≈ 193 µg/mL) | – | – |

Continued, in another order:

| MIC (C. albicans) | MIC (T. rubrum) | MIC (S. epidermidis) | Molecule | further results |
| --- | --- | --- | --- | --- |
| – | 50 µM (≈ 182 µg/mL) | 50 µM (≈ 182 µg/mL) | CC[C@H](C)[C@H](NC(=O)[C@H](CO)NC(=O)[C@H](CC(N)=O)NC(=O)[C@H](CCCNC(=N)N)NC(=O)[C@H](CC(N)=O)NC(=O)[C@H](CC(C)C)NC(=O)[C@H](CCCCN)NC(=O)[C@H](CCCCN)NC(=O)[C@H](CCCCN)NC(=O)[C@@H](NC(=O)[C@@H]1CCCN1C(=O)[C@H](CO)NC(=O)[C@H](CCCNC(=N)N)NC(=O)[C@@H](NC(=O)[C@H](CCCNC(=N)N)NC(=O)[C@@H](NC(=O)[C@@H](N)CCSC)[C@@H](C)CC)[C@@H](C)CC)[C@@H](C)O)C(=O)N[C@@H](CO)C(=O)N[C@@H](CC(=O)O)C(=O)N[C@@H](Cc1c[nH]c2ccccc12)C(=O)N[C@@H](CCCCN)C(=O)N[C@@H](CO)C(=O)N[C@@H](CC(N)=O)C(=O)N[C@H](C(=O)N[C@@H](CO)C(=O)NCC(=O)N[C@@H](CCCNC(=N)N)C(=O)N[C@@H](Cc1ccccc1)C(=O)N[C@@H](Cc1ccccc1)C(=O)N[C@@H](Cc1ccc(O)cc1)C(=O)O)[C@@H](C)O [PF-283] (H-MIRIRSPTKKKLNRNSISDWKSNTSGRFFY-OH; N-terminus and C-terminus assumed) | MIC (B. subtilis): 50 µM (≈ 182 µg/mL) |
| – | 50 µM (≈ 156 µg/mL) | – | CC[C@H](C)[C@H](NC(=O)[C@H](C)NC(=O)[C@@H]1CCCN1C(=O)[C@H](Cc1ccccc1)NC(=O)[C@@H]1CCCN1C(=O)[C@H](CC(C)C)NC(=O)[C@@H](N)C(C)C)C(=O)N1CCC[C@H]1C(=O)N[C@@H](CC(C)C)C(=O)N[C@@H](CO)C(=O)N[C@@H](CCCNC(=N)N)C(=O)N[C@@H](CCCNC(=N)N)C(=O)N[C@@H](CCCNC(=N)N)C(=O)N[C@@H](C)C(=O)N[C@@H](CS)C(=O)N[C@H](C(=O)N[C@@H](C)C(=O)N[C@@H](C)C(=O)N1CCC[C@H]1C(=O)N[C@@H](CCCNC(=N)N)C(=O)N1CCC[C@H]1C(=O)N[C@@H](CCCNC(=N)N)C(=O)N[C@@H](CO)C(=O)N[C@@H](CCCNC(=N)N)C(=O)N[C@@H](CCC(N)=O)C(=O)N[C@@H](CCCNC(=N)N)C(=O)N[C@@H](C)C(=O)N[C@@H](CO)C(=O)O)C(C)C [PF-168] (H-VLPFPAIPLSRRRACVAAPRPRSRQRAS-OH; N-terminus and C-terminus assumed) | MIC (MRSA): 50 µM (≈ 156 µg/mL); Target(s): form of Candida albicans bound (Candida albicans): yeast cells; MIC (A. niger): 50 µM (≈ 156 µg/mL) |
| 50 µM | 50 µM | 50 µM | CC[C@H](C)[C@H](NC(=O)[C@H](CCCCN)NC(=O)[C@H](C)NC(=O)[C@H](Cc1ccccc1)NC(=O)[C@@H](NC(=O)[C@H](C)NC(=O)[C@H](CC(C)C)NC(=O)[C@H](CO)NC(=O)[C@@H](N)CC(C)C)[C@@H](C)O)C(=O)N[C@@H](Cc1ccccc1)C(=O)N[C@@H](CCSC)C(=O)N[C@H](C(=O)N[C@@H](CCCNC(=N)N)C(=O)N[C@@H](CO)C(=O)N[C@@H](CC(N)=O)C(=O)N[C@@H](Cc1c[nH]c2ccccc12)C(=O)N[C@@H](CO)C(=O)N[C@@H](CC(C)C)C(=O)N[C@@H](CCCCN)C(=O)N[C@@H](CCCNC(=N)N)C(=O)N[C@@H](Cc1ccccc1)C(=O)N[C@@H](CC(N)=O)C(=O)N[C@@H](CCCNC(=N)N)C(=O)N[C@@H](CC(C)C)C(=O)O)[C@@H](C)O [PF-278] (H-LSLATFAKIFMTRSNWSLKRFNRL-OH; N-terminus and C-terminus assumed) | – |
| – | – | 50 µM (≈ 152 µg/mL) | CC[C@H](C)[C@H](NC(=O)[C@H](CC(N)=O)NC(=O)[C@@H](NC(=O)[C@H](Cc1ccccc1)NC(=O)[C@H](CCC(=O)O)NC(=O)CNC(=O)[C@H](CCC(N)=O)NC(=O)[C@H](Cc1ccccc1)NC(=O)[C@@H](N)CCCCN)[C@@H](C)O)C(=O)NCC(=O)N[C@@H](CCC(N)=O)C(=O)N[C@@H](CO)C(=O)N[C@@H](Cc1ccc(O)cc1)C(=O)N[C@H](C(=O)N[C@H](C(=O)N[C@@H](CO)C(=O)N[C@@H](C)C(=O)N[C@@H](CO)C(=O)N[C@@H](Cc1c[nH]cn1)C(=O)N[C@@H](CCSC)C(=O)N[C@@H](CO)C(=O)N[C@H](C(=O)N[C@@H](CO)C(=O)N[C@@H](CC(C)C)C(=O)N[C@@H](CC(N)=O)C(=O)N[C@H](C(=O)NCC(=O)N[C@@H](CCCCN)C(=O)O)[C@@H](C)O)[C@@H](C)O)C(C)C)[C@@H](C)CC [PF-583] (H-KFQGEFTNIGQSYIVSASHMSTSLNTGK-OH; N-terminus and C-terminus assumed) | MIC (MRSA): 50 µM (≈ 152 µg/mL); Target(s): form of Candida albicans bound (Candida albicans): hyphae |
